# Changes are numbered by the printed parent chain. Like-named read-outs stand apart in the source and are kept apart here.
# What was measured:
# [1] = biological target: T1, r-Y365F/M481I rURAT1 double point mutant (Rattus norvegicus, UniProt Q3ZAV1, M481I/Y365F); assay: URAT1 uric acid transport activity assay; assay type: cell-based
# T1 construct: hURAT1 and rURAT1 are 553 amino acid proteins with 12 transmembrane segments; expressed in transfected cells; host or cells: HEK-293T
# Outline: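 Rat URAT1 point or double mutants in pCMV6/neo were transiently transfected into cells and assayed the next day. Compounds were preincubated for 5 minutes, then 100 μM 14C-uric acid uptake was measured over 10 minutes in triplicate. IC50 came from four-parameter variable-slope nonlinear regression.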
# rURAT1 = test system: rURAT1; design: method as in PMID 21074513; details: cited from earlier work
# h-r TM6 URAT1 chimera = biological target: T2, h-r TM6 URAT1 chimera (Homo sapiens, UniProt Q96S37, C272F/L274V); assay: URAT1 uric acid transport activity assay; assay type: cell-based, human/rat; details: HEPES pH 7.3, 100 μM 14C-uric acid
# T2 construct: expressed in transfected cells; host or cells: HEK-293T
# Text: (§1) hURAT1 (GenBank BC053348.1) and rURAT1 (NCBI NM_001034943.1) genes were purchased from Origene Technologies, Inc. and subcloned into pCMV6/neo using NotI, creating pCMV6/neo-hURAT1 and pCMV6/neo-rURAT1. Mutants were produced by polymerase chain reaction (PCR) or site-directed mutagenesis using the QuikChange Lightning Multi Site-Directed Mutagenesis Kit (Agilent Technologies). […] Detailed methods are provided in Supplementary Methods, and primers are listed in Supplementary Table 1. […] Residues in rURAT1 and hOAT1 that correspond to the residues in hURAT1 were identified from aligned protein sequences (Supplementary Fig. 1)[50].
# (§2) DNA (10 μg) was mixed with 30 μl of DreamFect Gold (Boca Scientific) in 2 ml OptiMem (Life Technologies). After 20 minutes, 18 ml of media containing 2 × 10^7 cells in suspension was added and mixed, and 200 μl per well were plated onto white clear-bottomed poly-D-lysine coated 96-well plates (BD Biosciences). The cells were assayed the following day.
# (§3) Compounds were serially diluted into assay buffer and added to the cells for 5 minutes prior to addition of radiolabelled uric acid substrate. URAT1-expressing cells were incubated with 100 μM ^14C-uric acid for 10 minutes. […] Each treatment was measured in triplicate.
# (§4) Unlabelled uric acid was prepared at a 20 mM stock just prior to use in a solution containing 20 mM dibasic potassium phosphate and 20 mM potassium hydroxide.
# (§5) Nonlinear regression analyses using GraphPad Prism software were used to calculate the potency of URAT1 inhibitors (IC50 values) from log (inhibitor) versus response - variable slope (four parameters) equations. Statistical significance was assessed using Student’s unpaired t-tests.
# h-r TM9-N URAT1 chimera = biological target: T3, h-r TM9-N URAT1 chimera (Homo sapiens, UniProt Q96S37, A411S/A416P/L414V); assay: URAT1 uric acid transport activity assay; assay type: cell-based, human/rat; details: HEPES pH 7.3, 100 μM 14C-uric acid
# T3 construct: expressed in transfected cells; host or cells: HEK-293T
# Text: as §1, §2, §3, §4, §5
# [2] = biological target: T4, h-F365Y hURAT1 point mutant (Homo sapiens, UniProt Q96S37, F365Y); assay: URAT1 uric acid transport activity assay; assay type: cell-based; details: for fold reduced affinity of h-F365Y compared to hURAT1: from IC50 values; for IC50: h-F365Y, 100 μM 14C-uric acid
# T4 sequence (Q96S37 1-553 F365Y): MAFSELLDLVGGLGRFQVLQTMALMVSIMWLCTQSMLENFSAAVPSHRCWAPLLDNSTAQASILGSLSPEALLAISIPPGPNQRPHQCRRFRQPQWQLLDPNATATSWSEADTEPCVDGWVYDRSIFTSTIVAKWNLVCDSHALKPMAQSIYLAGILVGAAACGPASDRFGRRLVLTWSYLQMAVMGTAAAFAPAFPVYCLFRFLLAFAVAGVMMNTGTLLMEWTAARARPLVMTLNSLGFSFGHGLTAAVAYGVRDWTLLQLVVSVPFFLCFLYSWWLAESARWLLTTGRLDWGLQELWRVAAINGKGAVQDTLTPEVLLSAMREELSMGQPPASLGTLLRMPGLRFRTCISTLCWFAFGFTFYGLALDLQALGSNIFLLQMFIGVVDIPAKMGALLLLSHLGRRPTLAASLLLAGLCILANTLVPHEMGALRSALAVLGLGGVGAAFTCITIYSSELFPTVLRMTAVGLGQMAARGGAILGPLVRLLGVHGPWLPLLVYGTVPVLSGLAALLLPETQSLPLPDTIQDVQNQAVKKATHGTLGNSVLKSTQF
# [3] = biological target: T5, h-S35N hURAT1 point mutant (Homo sapiens, UniProt Q96S37, S35N); assay: URAT1 uric acid transport activity assay; assay type: cell-based; details: for fold reduced sensitivity/affinity of h-S35N compared to hURAT1: from IC50 values; for IC50: h-S35N, 100 μM 14C-uric acid
# T5 sequence (Q96S37 1-553 S35N): T4 sequence (Q96S37 1-553 F365Y) with S35N, Y365F
# human URAT1 (hURAT1 WT) = biological target: T6, human URAT1 (hURAT1 WT) (Homo sapiens, UniProt Q96S37); assay: URAT1 uric acid transport activity assay; assay type: cell-based; details: for IC50: hURAT1 WT, 100 μM 14C-uric acid; for fold higher affinity (potency) of hURAT1 compared to rURAT1: ratio of IC50 values, rURAT1 vs hURAT1
# T6 sequence (Q96S37 1-553): T4 sequence (Q96S37 1-553 F365Y) with Y365F
# T1 sequence (Q3ZAV1 whole entry Y365F/M481I): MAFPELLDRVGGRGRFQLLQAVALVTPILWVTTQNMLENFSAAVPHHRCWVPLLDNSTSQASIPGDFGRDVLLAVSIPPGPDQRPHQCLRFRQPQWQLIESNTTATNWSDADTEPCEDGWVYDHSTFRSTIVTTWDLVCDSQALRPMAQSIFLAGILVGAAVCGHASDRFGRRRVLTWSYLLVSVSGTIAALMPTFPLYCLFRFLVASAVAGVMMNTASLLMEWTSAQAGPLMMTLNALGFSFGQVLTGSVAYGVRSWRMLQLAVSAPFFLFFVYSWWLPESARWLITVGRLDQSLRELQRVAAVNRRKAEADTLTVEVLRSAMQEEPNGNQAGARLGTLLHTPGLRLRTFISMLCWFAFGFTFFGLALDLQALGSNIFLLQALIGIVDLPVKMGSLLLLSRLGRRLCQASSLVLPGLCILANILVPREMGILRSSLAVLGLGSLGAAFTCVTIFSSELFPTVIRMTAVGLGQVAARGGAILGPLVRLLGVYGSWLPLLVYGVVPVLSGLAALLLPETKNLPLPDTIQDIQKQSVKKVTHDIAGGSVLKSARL
# T3 sequence (Q96S37 whole entry A411S/L414V/A416P): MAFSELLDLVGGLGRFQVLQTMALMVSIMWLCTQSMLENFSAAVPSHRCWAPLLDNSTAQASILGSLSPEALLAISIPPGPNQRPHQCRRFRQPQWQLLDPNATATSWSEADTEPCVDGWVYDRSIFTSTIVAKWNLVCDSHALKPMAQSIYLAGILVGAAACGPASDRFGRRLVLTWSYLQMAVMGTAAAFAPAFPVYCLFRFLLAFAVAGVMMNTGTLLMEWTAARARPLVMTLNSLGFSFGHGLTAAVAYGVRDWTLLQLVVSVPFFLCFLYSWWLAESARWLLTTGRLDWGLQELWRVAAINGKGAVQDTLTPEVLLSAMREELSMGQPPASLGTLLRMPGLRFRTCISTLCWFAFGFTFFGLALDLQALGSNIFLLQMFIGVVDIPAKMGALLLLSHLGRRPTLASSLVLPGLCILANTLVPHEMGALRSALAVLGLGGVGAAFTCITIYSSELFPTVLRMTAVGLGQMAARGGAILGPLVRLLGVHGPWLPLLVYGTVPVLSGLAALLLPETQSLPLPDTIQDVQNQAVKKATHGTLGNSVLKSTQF
# T2 sequence (Q96S37 whole entry C272F/L274V): as the sequence (Q96S37 whole entry A411S/L414V/A416P) above, with C272F, L274V, S411A, V414L, P416A counted along it
compound,measurement,setting,value
CCc1oc2ccccc2c1C(=O)c1cc(Br)c(O)c(Br)c1 [benzbromarone],IC50,[1],3.5 ± 0.39 µM
same,IC50,rURAT1,11.9 µM
O=C1C(CC[S+]([O-])c2ccccc2)C(=O)N(c2ccccc2)N1c1ccccc1 (stereo not drawn) [sulfinpyrazone],IC50,h-r TM6 URAT1 chimera,30 ± 4 µM
same,IC50,h-r TM9-N URAT1 chimera,36 ± 17 µM
same,fold reduced affinity of h-F365Y compared to hURAT1,[2],5 fold
same,IC50,[2]; HEPES pH 7.3,163 ± 13 µM
same,fold reduced sensitivity/affinity of h-S35N compared to hURAT1,[3],7 fold
same,IC50,[3]; HEPES pH 7.3,233 ± 54 µM
same,IC50,human URAT1 (hURAT1 WT); HEPES pH 7.3,32 µM
same,fold higher affinity (potency) of hURAT1 compared to rURAT1,human URAT1 (hURAT1 WT),21 fold
same,IC50,"[1]; r-Y365F/M481I, HEPES pH 7.3, 100 μM 14C-uric acid, read-out: IC50 (uric acid transport)",138 ± 25 µM
O=c1[nH]c(=O)c2[nH]c(=O)[nH]c2[nH]1 [uric acid],fold reduced affinity of h-F365Y compared to hURAT1,[2],2.5 fold
same,IC50,[2]; MES pH 5.5,609 µM
same,fold reduced sensitivity/affinity of h-S35N compared to hURAT1,[3],2.1 fold
same,IC50,[3]; MES pH 5.5,507 µM
same,IC50,human URAT1 (hURAT1 WT); MES pH 5.5,246 µM
same,fold higher affinity (potency) of hURAT1 compared to rURAT1,human URAT1 (hURAT1 WT),greater than 10 fold
same,Km,rURAT1; read-out: Km for the substrate urate,1.77 mM
